Laboratory results: PubChem BioAssay AID1845213 (Molecular Pharmacology Branch, DTP, NCI, 2023)

Tested on: NCI-H841 complex tumor spheroid viability
Experiment: Anticancer human tumor NCI-H841 cell line growth inhibition;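 note: spheroids exposed to compounds for 7 days before readout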;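 for viability, T/C: 100% = DMSO vehicle control wells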
Conditions: for IC50: curve of first compound; for viability, T/C: stronger effect = lower value
Summary of the method: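 Single agents and combinations were tested on spheroids built from tumor cells plus HUVEC and hMSC, at half-log dilutions starting at or near clinical Cmax, else 10 microM; final DMSO 0.25% (v/v).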

[1] = second compound 0.003 µM, first compound 0.0316 µM
[2] = second compound 0.003 µM, first compound 0.1 µM
[3] = second compound 0.003 µM, first compound 0.316 µM
[4] = second compound 0.003 µM, first compound 1 µM
[5] = second compound 0.003 µM, first compound 3.16 µM
[6] = second compound 0.003 µM, first compound 10 µM
[7] = second compound 0.00949 µM, first compound 0.0316 µM
[8] = second compound 0.00949 µM, first compound 0.1 µM
[9] = second compound 0.00949 µM, first compound 0.316 µM
[10] = second compound 0.00949 µM, first compound 1 µM
[11] = second compound 0.00949 µM, first compound 3.16 µM
[12] = second compound 0.00949 µM, first compound 10 µM
[13] = second compound 0.03 µM, first compound 0.0316 µM
[14] = second compound 0.03 µM, first compound 0.1 µM
[15] = second compound 0.03 µM, first compound 0.316 µM
[16] = second compound 0.03 µM, first compound 1 µM
[17] = second compound 0.03 µM, first compound 3.16 µM
[18] = second compound 0.03 µM, first compound 10 µM
[19] = second compound 0.0949 µM, first compound 0.0316 µM
[20] = second compound 0.0949 µM, first compound 0.1 µM
[21] = second compound 0.0949 µM, first compound 0.316 µM
[22] = second compound 0.0949 µM, first compound 1 µM
[23] = second compound 0.0949 µM, first compound 3.16 µM
[24] = second compound 0.0949 µM, first compound 10 µM
[25] = second compound 0.3 µM, first compound 0.0316 µM
[26] = second compound 0.3 µM, first compound 0.1 µM
[27] = second compound 0.3 µM, first compound 0.316 µM
[28] = second compound 0.3 µM, first compound 1 µM
[29] = second compound 0.3 µM, first compound 3.16 µM
[30] = second compound 0.3 µM, first compound 10 µM

Compound | IC50 (second compound 0.003 µM) | IC50 (second compound 0.00949 µM) | IC50 (second compound 0.03 µM) | IC50 (second compound 0.0949 µM) | IC50 (second compound 0.3 µM) | viability, T/C [1] | viability, T/C [2] | viability, T/C [3] | viability, T/C [4] | viability, T/C [5] | viability, T/C [6] | viability, T/C [7] | viability, T/C [8] | viability, T/C [9] | viability, T/C [10] | viability, T/C [11] | viability, T/C [12] | viability, T/C [13] | viability, T/C [14] | viability, T/C [15] | further results
CC(C)n1c(=O)n(C)c2cnc3cc(F)c(-c4ccc(OCCCN5CCCCC5)nc4)cc3c21 + CC[C@@]1(O)C(=O)OCc2c1cc1n(c2=O)Cc2cc3c(CN(C)C)c(O)ccc3nc2-1 | < 31.6 nM | < 31.6 nM | < 31.6 nM | < 31.6 nM | < 31.6 nM | 47% | 51.3% | 56.6% | 63.5% | 65.1% | 43.2% | 4.68% | 4.13% | 6.57% | 6.6% | 10.3% | 7.04% | 1.24% | 1.19% | 1.09% | viability, T/C [16]: 1.3%; viability, T/C [17]: 1.9%; viability, T/C [18]: 2.19%; viability, T/C [19]: 2.12%; viability, T/C [20]: 1.53%; viability, T/C [21]: 1.21%; viability, T/C [22]: 1.06%; viability, T/C [23]: 1.07%; viability, T/C [24]: 1.41%; viability, T/C [25]: 2.29%; viability, T/C [26]: 2.08%; viability, T/C [27]: 1.55%; viability, T/C [28]: 0.71%; viability, T/C [29]: 0.65%; viability, T/C [30]: 0.78%
CC1COCCN1c1cc(-c2ccnn2C)c2ccnc(-c3ccn[nH]3)c2n1 (stereo not given) + CC[C@@]1(O)C(=O)OCc2c1cc1n(c2=O)Cc2cc3c(CN(C)C)c(O)ccc3nc2-1 | < 31.6 nM | < 31.6 nM | < 31.6 nM | < 31.6 nM | < 31.6 nM | 8.47% | 2.38% | 1.1% | 1.26% | 1.27% | 1.76% | 1.08% | 0.71% | 0.73% | 0.86% | 1.2% | 1.56% | 0.77% | 0.57% | 0.65% | viability, T/C [16]: 0.82%; viability, T/C [17]: 1.08%; viability, T/C [18]: 1.32%; viability, T/C [19]: 0.39%; viability, T/C [20]: 0.37%; viability, T/C [21]: 0.5%; viability, T/C [22]: 0.56%; viability, T/C [23]: 0.78%; viability, T/C [24]: 1.13%; viability, T/C [25]: 0.42%; viability, T/C [26]: 0.41%; viability, T/C [27]: 0.4%; viability, T/C [28]: 0.5%; viability, T/C [29]: 0.54%; viability, T/C [30]: 0.72%
COc1cc(C)[nH]c(=O)c1CN1CCc2c(Cl)cc(C(OC)C3COC3)c(Cl)c2C1=O (stereo not given) + CC[C@@]1(O)C(=O)OCc2c1cc1n(c2=O)Cc2cc3c(CN(C)C)c(O)ccc3nc2-1 | 3820 nM | 231 nM | < 31.6 nM | < 31.6 nM | < 31.6 nM | 86.1% | 72.1% | 62.9% | 56.6% | 49.7% | 47.5% | 82.3% | 62.6% | 43.2% | 38.2% | 32.5% | 27.9% | 3.53% | 1.86% | 4.87% | viability, T/C [16]: 2.31%; viability, T/C [17]: 2.71%; viability, T/C [18]: 2.37%; viability, T/C [19]: 1.65%; viability, T/C [20]: 1.4%; viability, T/C [21]: 1.34%; viability, T/C [22]: 1.12%; viability, T/C [23]: 0.95%; viability, T/C [24]: 0.94%; viability, T/C [25]: 1.75%; viability, T/C [26]: 1.53%; viability, T/C [27]: 1.29%; viability, T/C [28]: 0.89%; viability, T/C [29]: 1.03%; viability, T/C [30]: 0.98%
COc1ccc([C@@H](O)c2cc(-c3ncnc4cc(N5CCOCC5)ccc34)c(F)cc2Cl)nn1 + CC[C@@]1(O)C(=O)OCc2c1cc1n(c2=O)Cc2cc3c(CN(C)C)c(O)ccc3nc2-1 | 3830 nM | 1220 nM | < 31.6 nM | < 31.6 nM | < 31.6 nM | 95.6% | 95.9% | 94.9% | 86.5% | 58% | 10.6% | 83.1% | 83.6% | 76.3% | 52.6% | 27.9% | 6.04% | 4.02% | 2.47% | 1.69% | viability, T/C [16]: 1.88%; viability, T/C [17]: 1.8%; viability, T/C [18]: 1.21%; viability, T/C [19]: 1.56%; viability, T/C [20]: 1.55%; viability, T/C [21]: 1.96%; viability, T/C [22]: 1.31%; viability, T/C [23]: 0.92%; viability, T/C [24]: 0.89%; viability, T/C [25]: 1.74%; viability, T/C [26]: 1.64%; viability, T/C [27]: 1.32%; viability, T/C [28]: 1.22%; viability, T/C [29]: 0.55%; viability, T/C [30]: 0.42%
[2H]c1nc(C)nc([2H])c1-c1cc(NC[C@@H](C)c2cccc3c(C(=O)NC)ccnc23)ncn1 + CC[C@@]1(O)C(=O)OCc2c1cc1n(c2=O)Cc2cc3c(CN(C)C)c(O)ccc3nc2-1 | > 10000 nM | > 10000 nM | < 31.6 nM | < 31.6 nM | < 31.6 nM | 97.6% | 95.8% | 96.1% | 96.4% | 93.4% | 93% | 83.9% | 76.5% | 74.4% | 75.2% | 68.7% | 62.6% | 2.66% | 2.14% | 2.36% | viability, T/C [16]: 1.49%; viability, T/C [17]: 1.43%; viability, T/C [18]: 1.47%; viability, T/C [19]: 1.75%; viability, T/C [20]: 1.82%; viability, T/C [21]: 1.89%; viability, T/C [22]: 1.74%; viability, T/C [23]: 1.58%; viability, T/C [24]: 1.67%; viability, T/C [25]: 1.97%; viability, T/C [26]: 1.94%; viability, T/C [27]: 1.59%; viability, T/C [28]: 1.73%; viability, T/C [29]: 1.5%; viability, T/C [30]: 1.17%
